According to US9403830B2, “Inhibitors of leukotriene production” (Boehringer Ingelheim International GmbH, priority 2012, dated 2016):

Columns and labels:
[1] = test system: LTB4 synthesis in human whole blood; test: human whole blood (HWB) assay, inhibition of LTB4 production; type: cell-based; conditions: heparinized human whole blood, calcimycin 20 μM stimulation, plasma LTB4
Description: The compounds of the invention are additionally tested in a human whole blood (HWB) assay to determine their ability to inhibit the synthesis of LTB4 in a cellular system. Compounds are combined with heparinized human whole blood and incubated for 15 minutes at 37° C. Calcimycin (20 μM final, prepared in phosphate-buffered saline, pH 7.4) is then added and the mixture is incubated for another 30 minutes at 37° C. The samples are centrifuged for 5 min at low speed (1500×g) and the plasma layer is removed. Plasma LTB4 concentrations are then measured using an antibody-based homogenous time-resolved fluorescence method (CisBio, Bedford, Mass.). In general, the preferred potency range (IC50) of compounds in the HWB assay is between 10 nM to 10 μM, the more preferred potency range is 10 nM to 1 μM, and the most preferred potency range is 10 nM to 100 nM.

[2] = target: T1, human LTA4 hydrolase (Homo sapiens, UniProt P09960); test: LTA4H Enzyme assay (peptidase, Arg-AMC cleavage); type: biochemical; conditions: LTA4H enzyme 1 nM, Arg-AMC substrate 50 μM, room temperature 1 h, fluorescence 380/460 nm
T1 sequence (P09960 1-611): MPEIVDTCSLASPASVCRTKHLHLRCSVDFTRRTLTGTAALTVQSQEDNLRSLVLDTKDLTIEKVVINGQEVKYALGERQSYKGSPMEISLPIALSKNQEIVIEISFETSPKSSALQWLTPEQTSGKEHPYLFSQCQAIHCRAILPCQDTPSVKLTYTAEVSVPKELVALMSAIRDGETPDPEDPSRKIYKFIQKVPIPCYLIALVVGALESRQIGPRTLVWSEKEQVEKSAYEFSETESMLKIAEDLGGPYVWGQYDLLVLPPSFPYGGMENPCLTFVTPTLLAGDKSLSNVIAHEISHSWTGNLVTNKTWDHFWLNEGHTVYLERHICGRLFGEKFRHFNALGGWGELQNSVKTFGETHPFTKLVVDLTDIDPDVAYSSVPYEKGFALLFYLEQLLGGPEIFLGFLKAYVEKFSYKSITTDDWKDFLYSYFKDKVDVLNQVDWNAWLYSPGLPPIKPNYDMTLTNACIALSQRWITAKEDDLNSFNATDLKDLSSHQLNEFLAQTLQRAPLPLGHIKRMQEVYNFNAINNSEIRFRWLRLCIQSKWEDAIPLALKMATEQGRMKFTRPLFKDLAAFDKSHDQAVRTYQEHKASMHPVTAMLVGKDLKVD
Description: The compounds of the invention are assessed for the ability to interact with human LTA4 hydrolase in an enzymatic assay that measures the ability of the enzyme to cleave the peptide bond of arginyl-aminomethylcoumarin (Arg-AMC). LTA4H Enzyme (1 nM final), Arg-AMC substrate (50 μM final), and compound are combined in a reaction buffer (50 mM Tris-HCl (pH 7.5), 100 mM KCl, 0.5% bovine serum albumin) at room temperature for 1 h. The formation of product is assessed by measuring the fluorescence of aminomethylcoumarin product (excitation wavelength 380 nm/emission wavelength 460 nm). In general, the preferred potency range (IC50) of compounds in the LTA4H Enzyme assay is between 0.1 nM to 10 μM, the more preferred potency range is 0.1 nM to 0.1 μM, and the most preferred potency range is 0.1 nM to 10 nM.

IC50 [1] [nM]	IC50 [2] [nM]	Structure (SMILES)
170	0.42	c1cc(-c2ccc(Oc3ccc4[nH]c(CNC[C@@H]5CCCO5)nc4c3)cc2)[nH]n1 [Example 100, {5-[4-(2H-Pyrazol-3-yl)-phenoxy]-1H-benzoimidazol-2-ylmethyl}-[(S)-1-(tetrahydro-furan-2-yl)methyl]-amine]
95	0.18	CCN(CCOC)Cc1nc2cc(Oc3ccc(-c4ccn[nH]4)cc3)ccc2[nH]1 [Example 155, Ethyl-(2-methoxy-ethyl)-{5-[4-(2H-pyrazol-3-yl)-phenoxy]-1H-benzoimidazol-2-ylmethyl}-amine]
180	0.35	O=C1CCCN1C1CCN(CC2Cc3ccc(Oc4ccc(-c5ccn[nH]5)cc4)cc3O2)CC1 (stereo not drawn) [Example 198, 1-(1-{6-[4-(2H-Pyrazol-3-yl)-phenoxy]-2,3-dihydro-benzofuran-2-ylmethyl}-piperidin-4-yl)-pyrrolidin-2-one]
200	0.59	C[C@H](O)C(=O)N1CCN(Cc2ccc3cc(Oc4ccc(-c5ccn[nH]5)cc4)ccc3n2)CC1 [Example 13, (S)-2-hydroxy-1-(4-{6-[4-(2H-pyrazol-3-yl)-phenoxy]-quinolin-2-ylmethyl}-piperazin-1-yl)-propan-1-one]
540	2.3	CC(=O)N1CCN(CCn2ccc3cc(Oc4ccc(-c5ccn[nH]5)cn4)ccc32)CC1 [Example 224, 1-[4-(2-{5-[5-(2H-Pyrazol-3-yl)-pyridin-2-yloxy]-indol-1-yl}-ethyl)-piperazin-1-yl]-ethanone]
360	1.7	O=C1OCCN1Cc1cn2cc(Oc3ccc(-c4ccn[nH]4)cc3)ccc2n1 [Example 255, 3-{6-[4-(2H-Pyrazol-3-yl)-phenoxy]-imidazo[1,2-a]pyridin-2-ylmethyl}-oxazolidin-2-one]
190	0.39	CNC(=O)C1CCN(CCc2coc3cc(Oc4ccc(-c5ccn[nH]5)cn4)ccc23)CC1 [Example 138, 1-(2-{6-[5-(2H-Pyrazol-3-yl)-pyridin-2-yloxy]-benzofuran-3-yl}-ethyl)-piperidine-4-carboxylic acid methylamide]
200	0.77	O=C1OCCN1C1CCN(CC2Cc3ccc(Oc4ccc(-c5ccn[nH]5)cc4)cc3O2)CC1 (stereo not drawn) [Example 203, 3-(1-{6-[4-(2H-Pyrazol-3-yl)-phenoxy]-2,3-dihydro-benzofuran-2-ylmethyl}-piperidin-4-yl)-oxazolidin-2-one]
67	0.096	C[C@@H]1CN(Cc2nc3cc(Oc4ccc(-c5ccn[nH]5)cc4)ccc3[nH]2)C[C@H](C)O1 [Example 53, 2-((2R,6S)-2,6-Dimethyl-morpholin-4-ylmethyl)-5-[4-(2H-pyrazol-3-yl)-phenoxy]-1H-benzoimidazole]
110	0.097	c1cc(-c2ccc(Oc3ccc4c(c3)OC(CN3CCCC3)C4)cc2)[nH]n1 (stereo not drawn) [Example 218, 5-[4-(2-Pyrrolidin-1-ylmethyl-2,3-dihydro-benzofuran-6-yloxy)-phenyl]-1H-pyrazole]
160	0.54	c1cc(-c2ccc(Oc3ccc4[nH]c(CNCC5CCCO5)nc4c3)cc2)[nH]n1 (stereo not drawn) [Example 97, {5-[4-(2H-Pyrazol-3-yl)-phenoxy]-1H-benzoimidazol-2-ylmethyl}-(tetrahydro-furan-2-ylmethyl)-amine]
220	0.46	NC(=O)C1CCN(Cc2ccc3cc(Oc4ccc(-c5ccn[nH]5)cn4)ccc3c2)CC1 [Example 5, 1-{6-[5-(2H-Pyrazol-3-yl)-pyridin-2-yloxy]-naphthalen-2-ylmethyl}-piperidine-4-carboxylic acid amide]
87	0.2	CN(Cc1nc2cc(Oc3ccc(-c4ccn[nH]4)cc3)ccc2[nH]1)C[C@@H]1CCCO1 [Example 76, Methyl-{5-[4-(2H-pyrazol-3-yl)-phenoxy]-1H-benzoimidazol-2-ylmethyl}-[(S)-1-(tetrahydro-furan-2-yl)methyl]-amine]
160	0.13	c1cc(-c2ccc(Oc3ccc4[nH]c(CNC5CCCC5)nc4c3)cc2)[nH]n1 [Example 188, Cyclopentyl-{5-[4-(2H-pyrazol-3-yl)-phenoxy]-1H-benzoimidazol-2-ylmethyl}-amine]
120	0.21	COCC1CCN(Cc2nc3cc(Oc4ccc(-c5ccn[nH]5)cc4)ccc3[nH]2)C1 (stereo not drawn) [Example 166, 2-(3-Methoxymethyl-pyrrolidin-1-ylmethyl)-5-[4-(2H-pyrazol-3-yl)-phenoxy]-1H-benzoimidazole]
120	0.36	c1cc(-c2ccc(Oc3ccc4nn(CCCN5CCOCC5)cc4c3)cc2)[nH]n1 [Example 84, 2-(3-Morpholin-4-yl-propyl)-5-[4-(2H-pyrazol-3-yl)-phenoxy]-2H-indazole]
180	0.26	CC1(C)CCN(Cc2nc3cc(Oc4ccc(-c5ccn[nH]5)cc4)ccc3[nH]2)C1=O [Example 234, 3,3-Dimethyl-1-{5-[4-(2H-pyrazol-3-yl)-phenoxy]-1H-benzoimidazol-2-ylmethyl}-pyrrolidin-2-one]
210	1.2	CO[C@@H]1CCN(Cc2ccc3cc(Oc4ccc(-c5ccn[nH]5)cn4)ccc3n2)C1 [Example 205, 2-((R)-3-Methoxy-pyrrolidin-1-ylmethyl)-6-[5-(2H-pyrazol-3-yl)-pyridin-2-yloxy]-quinoline]
190	0.45	CCC(=O)N1CCN(Cc2ccc3cc(Oc4ccc(-c5ccn[nH]5)cc4)ccc3n2)CC1 [Example 12, 1-(4-{6-[4-(2H-pyrazol-3-yl)-phenoxy]-quinolin-2-ylmethyl}-piperazin-1-yl)-propan-1-one]
95	0.19	CCN(C)CCn1cc2cc(Oc3ccc(-c4ccn[nH]4)cc3)ccc2n1 [Example 154, Ethyl-methyl-(2-{5-[4-(2H-pyrazol-3-yl)-phenoxy]-indazol-2-yl}-ethyl)-amine]
470	2.6	c1cc(-c2ccc(Oc3ccc4c(CN5CCOCC5)n[nH]c4c3)nc2)[nH]n1 [Example 113, 3-Morpholin-4-ylmethyl-6-[5-(2H-pyrazol-3-yl)-pyridin-2-yloxy]-1H-indazole]
140	0.65	CC1(O)CN(Cc2ccc3cc(Oc4ccc(-c5ccn[nH]5)cn4)ccc3n2)C1 [Example 174, 3-Methyl-1-{6-[5-(2H-pyrazol-3-yl)-pyridin-2-yloxy]-quinolin-2-ylmethyl}-azetidin-3-ol]
110	0.28	CN(C)CCn1cc2cc(Oc3ccc(-c4ccn[nH]4)cc3)ccc2n1 [Example 158, Dimethyl-(2-{5-[4-(2H-pyrazol-3-yl)-phenoxy]-indazol-2-yl}-ethyl)-amine]
270	0.86	CC(=O)N(C)C1CCN(Cc2ccc3cc(Oc4ccc(-c5ccn[nH]5)cn4)ccc3n2)CC1 [Example 37, N-Methyl-N-(1-{6-[5-(2H-pyrazol-3-yl)-pyridin-2-yloxy]-quinolin-2-ylmethyl}-piperidin-4-yl)-acetamide]
160	0.18	c1cc(-c2ccc(Oc3ccc4[nH]c(CN5CCSCC5)nc4c3)cc2)[nH]n1 [Example 98, 5-[4-(2H-Pyrazol-3-yl)-phenoxy]-2-thiomorpholin-4-ylmethyl-1H-benzoimidazole]
150	0.45	c1cc(-c2ccc(Oc3ccc4c(c3)OC(CNCC3CCOCC3)C4)cc2)[nH]n1 (stereo not drawn) [Example 185, {6-[4-(2H-Pyrazol-3-yl)-phenoxy]-2,3-dihydro-benzofuran-2-ylmethyl}-(tetrahydro-pyran-4-ylmethyl)-amine]
140	0.11	CN(Cc1nc2cc(Oc3ccc(-c4ccn[nH]4)cc3)ccc2[nH]1)CC1CCCOC1 (stereo not drawn) [Example 92, Methyl-{5-[4-(2H-pyrazol-3-yl)-phenoxy]-1H-benzoimidazol-2-ylmethyl}-(tetrahydro-pyran-3-ylmethyl)-amine]
